Experimental data as given in patent US5962533A, “Hydroxy polyamines” (priority 1996, dated 1999).
Counter-ions that a name gives are not always drawn.

Experiments:
[1] = Chronic toxicity, one dose per day for five days; type: in vivo
Method: In the chronic toxicity regimen, mice were administered the polyamine analogue as one dose per day for five days. Appetite, weight and overall physical appearance were recorded at the time of each injection. After the treatment regimen had been completed, the animals were observed an additional 10 days. The chronic toxicity dosing regimen was set up so that at least one test group was presented with a high fraction of lethalities.

[2] = system: castor oil-induced diarrhea; experiment: Castor oil-induced diarrhea; type: in vivo, rat
From the text: Castor Oil-Induced Diarrhea. Male Sprague-Dawley rats (350-400 g) were fasted overnight in hanging wire cages and allowed free access to water.

L1210 cells = experiment: Polyamine pool analysis in analogue-treated L1210 cells (HPLC); type: cell-based, Murine; settings: for PUT level relative to untreated controls / SPD level relative to untreated controls / SPM level relative to untreated controls: L1210 cells, control = 100%
Method: Polyamine Pool Analysis. While in logarithmic growth, cells were treated with the polyamine derivatives. […] Each supernatant was frozen at -20° C. until analysis by HPLC.

[3] = 3.5 μm analogue, listed as (OH)2 DEHSPM

## CCNCC[C@@H](O)CNCCCCNC[C@H](O)CCNCC [(HO)2 DEHSPM, N^1,N^14 -Diethyl-3(R),12(R)-dihydroxyhomospermine tetrahydrochloride]
[1]; 70 mg/kg per day×5 days
  # deaths/# animals: 0/5
[1]; 80 mg/kg per day×5 days
  # deaths/# animals: 0/5
[1]; 90 mg/kg per day×5 days
  # deaths/# animals: 0/10
[1]; 100 mg/kg per day×5 days
  # deaths/# animals: 1/5
[1]; 120 mg/kg per day×5 days
  # deaths/# animals: 2/5
[1]; 20, 40 and 60 mg/kg per day×5 days, groups of six animals
  deaths: No deaths
[1]; mice
  LD40: 120 mg/kg per day×5 days
[1]; mouse, in vivo
  necropsy conclusion in severely affected animals: potently blocks gastric transport
[1]; mouse, in vivo, mice, subchronic regimen, read-out: LD50 estimated from the slope of the toxicity curve
  LD50: 130 mg/kg
[2]; 1 mg/kg, rat
  prevention of castor oil-induced diarrhea: not an effective anti-diarrheal agent
[2]; 2.5 mg/kg, rat, six hour observation
  prevention of castor oil-induced diarrhea: partially effective
[2]; 5 mg/kg subcutaneous, rat, six hour assay
  prevention of castor oil-induced diarrhea: as effective as DEHSPM at preventing diarrhea
[2]; 18 kg/mg, rat
  prevention of castor oil-induced diarrhea: effectively prevented the onset of diarrhea
[2]; Rattus norvegicus, sc, read-out: minimum effective dose for prevention of diarrhea
  minimal effective dose: 5 mg/kg
[2]; subcutaneous injection 30 minutes before castor oil 5 ml/kg, rat
  stool output / diarrhea during 6 hour assay (FIG. 8): virtually no stool output
L1210 cells; 0.7 μm analogue
  PUT level relative to untreated controls: 45%
  SPD level relative to untreated controls: 57%
  SPM level relative to untreated controls: 96%
L1210 cells; 3.5 μm analogue
  PUT level relative to untreated controls: below detectable limits
  SPD level relative to untreated controls: below detectable limits
  SPM level relative to untreated controls: 60%
L1210 cells; [3]
  PUT level relative to untreated controls: 0%
  SPD level relative to untreated controls: 0%
  SPM level relative to untreated controls: 68%
L1210 cells; in vitro conditions
  N-deethylation by L1210 cells: do not N-deethylate
